Assay results from patent US4044043A, “Derivatives of 9-oxo-13-trans-prostenoic acid esters” (American Cyanamid Company, priority 1975, dated 1977).
≈ marks a conversion by molar mass, not a printed value. Like-named read-outs stand apart in the source and are kept apart here.

Key:
diastolic blood pressure = experiment: Prostaglandin-like hypotensive activity in anesthetized rats (minimal dose for about 10 mm. decrease in diastolic blood pressure); assay type: in vivo, Male Wistar strain rats; conditions: Rattus norvegicus; intravenous; decrease of about 10 mm. in diastolic blood pressure
Experimental: This procedure is a modification of the technique described by Pike et al., Prostaglandins, Nobel Symposium 2, Stockholm, June, 1966; p, 165.
Male Wistar strain rats (Royal Hart Farms) averaging approximately 250 grams in weight were fastened to rat boards in a supine position by means of canvas vests and limb ties. The femoral area was infiltrated subcutaneously with lidocaine and the iliac artery and vein exposed and cannulated. Arterial blood pressure (systolic/diastolic) was recorded using a Statham P23 Db pressure transducer-Offner dynograph system. To obtain a stable blood pressure, the animals were anesthetized before use with pentobarbital, 30 mg./kg. of body weight intravenously, and also were given hexamethonium bitartrate, 2 mg./kg. of body weight intravenously. The test compounds were prepared by ultrasonic dispersion in a saline-Tween 80 ® vehicle. A constant intravenous dose volume of 0.5 ml. was administered and test doses ranged from 0.1 to 10.0 mg./kg. of body weight. Increasing or decreasing doses were selected depending on the dose response obtained. In Table I below are set forth the minimal doses required to produce a decrease of about 10 mm. in diastolic blood pressure for typical compounds of the present invention.

[1] = test system: Mycobacterium smegmatis ATCC 606; experiment: agar-dilution streak-plate antimicrobial assay; assay type: cell-based; conditions: Mycolicibacterium smegmatis, ATCC606, read-out: Minimal inhibitory conc. (6)
Experimental: (§1) The novel compounds of the present invention are also useful as antimicrobial agents. […] In this assay, the compounds to be tested are made up to contain 2.5 mg. of test compound per milliliter of solution. Observing sterile techniques, two-fold serial dilution are made of each test solution. One milliliter of each of the original solutions and of each of the serial dilutions is then added to 9 ml. of warm sterile nutrient agar capable of supporting growth of the bacterial test cultures. A second set of agar dilutions is prepared identical to the first except that the nutrient agar is designed to support the growth of the fungal test cultures. […] The test bacteria and yeast-like fungi are prepared for use by growing in broth overnight. The spores of the filamentous fungi are harvested from mature agar slant cultures and are suspended in sterile physiological saline solution. A loopful of each of the resulting live suspensions is then, still employing sterile techniques, streaked upon the surfaces of each of the agar plates and the resulting streaked plates are then incubated. After an appropriate period of time, each of the streaks on each of the plates is inspected visually and the extent, if any, of bacterial or fungal growth is noted. The minimal inhibitory concentration (expressed in micrograms per milliliter) is defined as the concentration of test compound causing complete inhibition of growth of any particular organism. In a representative operation, and merely by way of illustration, the minimal inhibitory concentration of typical compounds of the present invention against a variety of test organisms as determined in the above-described assay are set forth in Tables II and III below: […]

[2] = test system: Trichophyton tonsurans NIH 662; experiment: agar-dilution streak-plate antimicrobial assay; assay type: cell-based; conditions: NIH662, read-out: Minimal inhibitory conc. (3)
Experimental: as §1

gastric acid secretion [3] = experiment: Inhibition of Gastric Acid Secretion (Pylorous-Ligated Rat), Shay rat procedure; assay type: in vivo, rats (male, CFE strain); conditions: read-out: % Inhibition of Control Gastric Acid Secretion; for inhibition in vivo at 100 mg/kg: 100 mg./kg. intraduodenal
Description: The novel compounds of the present invention are also effective inhibitors of gastric acid secretion and of ulcer development in experimental animals, and thus are potentially valuable as agents for the control of gastric acid secretion and of gastric erosion and as anti-ulcer agents. Gastric acid secretion inhibitory action is usually measured by the Shay rat procedure ^(1,2) with some modifications as follows. 6 1. Shay et al., Gastroenterology, 5, 43 (1945). 6 2. Shay et al., Gastroenterology, 26, 906 (1954).
The rats (male, CFE strain) were starved for 48 hours (water was given ad libitum) to permit evacuation of stomach contents. On the morning of the experiment, under ether anesthesia, the abdominal region was shaved and a midline incision (1-1 1/2 inch) was made with a scalpel. With the help of a closed curved hemostat the duodenum was picked up. Upon getting the duodenum into view fingers were used to pull the stomach through the opening, the stomach was then gently manipulated with fingers to rid stomach of air and residual matter which were pushed through the pylorus. Two 5-inch sutures were drawn under the pyloric-duodenal puncture. A ligature, at the juncture, was formed with one of the threads. The second ligature was also formed but not tightened.
The test compound or the vehicle, usually 1 ml./100 g. body weight, were injected into the duodenum as close as possible to the first ligature. After injection the second ligature was tightened below the injection site to minimize leakage. The stomach was placed back through the opening into the abdominal cavity, the area of incision was washed with saline and the incision was closed with autoclips. (Ocasionally instead of an intraduodenal injection, animals were dosed by the oral or subcutaneous route. In the latter case, dosing was done thirty to sixty minutes before the operation).
The abdominal cavity was exposed by cutting with scissors and the esophagus close to the stomach was clamped off with a hemostat, the stomach was removed by cutting above the hemostat (the esophagus was cut) and between the two sutures. Extraneous tissue was removed, the stomach washed with saline and blotted on gauze. A slit was carefully made in the stomach which was held over a funnel and the contents were collected in a centrifuge tube. The stomach was further cut along the outside edge and turned inside out. Two ml. of water were used to wash the stomach contents into the respective centrifuge tube. The combined stomach contents and wash were then centrifuged out for 10 minutes in the International Size 2 Centrifuge (setting at 30). The supernatant was collected, volume measured and recorded, 2 drops of phenolphthalein indicator (1% in 95% ethanol) were added and the solution was titrated with 0.02N NaOH (or with 0.04N NaOH when large volumes of stomach contents were encountered) to pH 8.4 (because of usual coloring of the stomach contents, phenolphthalein was only used to permit visual indication that the end point was near) and the amount of acid present was calculated.
Compounds inducing inhibition of gastric acid secretion of 20% or more were considered active. In a representative operation, and merely by way of illustration, the results obtained with this assay with typical compounds of the present invention are given in Table IIIA.

[4] = test system: bronchospasms elicited by 5-hydroxytryptamine; experiment: Bronchodilator Activity (Konzett Assay) against 5-hydroxytryptamine; assay type: in vivo, guinea pigs; conditions: Cavia porcellus; three logarithmic cumulative intravenous doses
Experimental: (§2) Bronchodilator activity was determined in guinea pigs against bronchospasms elicited by intravenous injections of 5-hydroxytryptamine, histamine or acetylcholine by the Konzett procedure. [See J. Lulling, P. Lievens, F. El Sayed and J. Prignot, Arzeneimittel-Forschung, 18, 995 (1968)]. In Table IIIC which follows bronchodilator activity for representative compounds of this invention against one or more of the three spasmogenic agents is expressed as an ED50 determined from the results obtained with three logarithmic cumulative intravenous doses.

[5] = test system: bronchospasms elicited by histamine; experiment: Bronchodilator Activity (Konzett Assay) against histamine; assay type: in vivo, guinea pigs; conditions: Cavia porcellus; three logarithmic cumulative intravenous doses
Experimental: as §2

[6] = test system: bronchospasms elicited by acetylcholine; experiment: Bronchodilator Activity (Konzett Assay) against acetylcholine; assay type: in vivo, guinea pigs; conditions: Cavia porcellus; three logarithmic cumulative intravenous doses
Experimental: as §2

[7] = test system: dl-PGE1-induced contraction of gerbil colon; experiment: Inhibition of dl-PGE1-Induced Contraction of Gerbil Colon (prostaglandin antagonist action); assay type: cell-based, gerbils (Meriones unguiculatus); conditions: Meriones unguiculatus, 1 min
Experimental: The compounds of this invention are also useful as antagonists of prostaglandin action and accordingly they are potentially useful as anti-inflammatory agents, and as agents for the treatment of periodontal diseases and diarrhea. Testing for prostaglandin antagonist action is carried out in the following manner. Sections of ascending colon, approximately 20 mm. long, from mature male gerbils (Meriones unguiculatus) weighing 70-80 g. were mounted in De Jalon's solution (154 mM NaCl; 5.95 mM NAHCO3; […], 5.64 mM KC and .27 mM CaCl2 in 20 ml. tissue baths) (L and K Glass Co., Lynnhurst, N.J.). The medium was continually gassed with a mixture of 95% 02 -5% CO2 and maintained at 37° C. The tissues were suspended via silk suture threads between a glass hook at the base and a model FT .03C force displacement transducer (Grass Instruments, Quincy, Massachusetts). Contractions were recorded on a Poly-Viso ® polygraph (Sanborn Co., Cambridge, Massachusetts). After mounting, tissues were allowed to stabilize 15-20 minutes during which time adjustments were made to establish and maintain a 0.5 g. resting tension on the muscle. Thereafter, test cycles of 3-5 minutes were begun and consisted of a 1 minute exposure to the potential antagonist, if called for, followed by a 1 minute exposure to the prostaglandin agonist, a 15-30 sec. washout and a recovery period of 2-2.5 minutes. […] During the washout period, the tissue was rinsed with a measured amount equalling 8 volumes of medium. Muscle relaxation was virtually complete by the end of the washout period. During preliminary tests it was noted that a final concentration of 200 ng./ml. of a racemic mixture of synthetic prostaglandin-E1 (dl-PGE1) produced maximal muscle contraction. Following stabilization, muscles were exposed 2 to 3 times to this concentration of dl-PGE1 until a consistent response was recorded. Once maximal responses were established, test cycles with potential antagonists were commenced and were followed alternately with prostaglandin-only test cycle. […] The contraction of the muscle induced by 200 ng./ml. dl-PGE1 following exposure to a given concentration of the potential antagonist was always compared to the response of the tissue to that level of dl PGE1 in the immediately preceding cycle. Using a series of potential antagonist concentrations, an approximate ID50 (concentration at which 50% inhibition was observed) was established. The compounds were also tested against a sub-maximal prostaglandin challenge (20 ng./ml. dl-PGE1) in which case activity is reported in terms of a 50% inhibition of maximum response.

gastric acid secretion [8] = experiment: Inhibition of basal Gastric Acid Secretion (Acute Gastric Fistula Rat); assay type: in vivo, Female Sprague-Dawley rats; conditions: 2 h, 10 mg./kg. intraduodenal, B: 120 minute collection
Experimental: Inhibition of basal gastric acid secretion was determined in the acute gastric fistula rat as follows. Female Sprague-Dawley rats (Charles River Laboratories) weighing 140-160 grams are fasted in individual cages for 18-24 hours. The rats are then lightly anesthetized with ether and their front teeth extracted to avoid destruction of the plastic cannula. A midline incision is then made and the stomach and duodenum exposed. A flanged polyvinyl tube is inserted into the fundic portion of the stomach and secured with a purse string suture line using 4-0 Mersilene. The rat is then dosed by injection of the compound into the duodenum (1.0 ml. per 100 gram body weight). After dosing, the abdominal wall and skin are closed using metal wound clips. The rat is replaced in a cage containing a longitudinal slit to allow the polyvinyl tube to hang freely. An 8 ml. plastic collecting tube is attached to the flanged cannula and hangs freely below the cage. The first 30 minute sample is discarded designating this time as zero. The collecting tube is attached again and samples removed at the end of 60 and 120 minutes. Those samples are referred to as "A" and "B" in the table. The hourly samples are then transferred to a 15 ml. centrifuge tube and centrifuged for 5-10 minutes. Total and sediment volume are then recorded with the supernatant volume being used as volume of secretion. A 1 ml. or less aliquot is then removed and placed in a 50 ml. beaker containing 10 ml. of distilled water. This sample is then titrated using 0.01N NaOH to pH 7.0 using a Beckman zeromatic pH meter. Volume, titratable acidity (meq/L) and total acid output (μ eq/hour) are recorded. Percent inhibition is determined by comparison with the appropriate control. Groups of three rats were used. All compounds are administered in vehicle (0.5% methocel, 0.4% Tween 80, saline) at a constant volume of 1 ml./100 gram rat. Samples were sonicated with care to prevent overheating.

[9] = 200 ng./ml. dl-PGE1, read-out: ID50 vs. 200 ng. of PGE1/ml.
[10] = sub-maximal challenge, 20 ng./ml. dl-PGE1, 50% inhibition of maximum response, read-out: ID50 vs. 20 ng. of PGE1/ml.
[11] = read-out: % Inhibition Total Acid Output
[12] = read-out: % Inhibition Total Acidity

Compound	IC50 [7, 9]	IC50 [7, 10]	ED50 [4]	ED50 [5]	ED50 [6]	inhibition in vivo at 100 mg/kg (gastric acid secretion [3])	also measured
CCCCCCCCCC/C=C/[C@H]1CCC(=O)[C@@H]1CCCCCCC(=O)OCC (relative stereo) [ethyl 20-butyl-9-oxo-13-trans-prostenoate]							minimal effective dose (diastolic blood pressure): 10 mg/kg; MIC [1]: 250 mg/L (≈ 615 µM); MIC [2]: 250 mg/L (≈ 615 µM)
CCCCCC/C=C/[C@@H]1CCC(=O)[C@H]1CCCCC(C)(C)CC(=O)OCC (relative stereo) [ethyl 9-oxo-3,3-dimethyl-13-trans-prostenoate]							inhibition in vivo at 10 mg/kg (gastric acid secretion [8]; [11]): 59%; inhibition in vivo at 10 mg/kg (gastric acid secretion [8]; [12]): 18%
CCCC=CC1CCC(=O)C1CCCCCC(F)C(=O)O (stereo not drawn) [9-oxo-2-fluoro-18,19,20-trinor-13-trans-prostenoic acid]	25 to 30 mg/L (≈ 83.8 to 101 µM)		8.36 mg/kg	6.35 mg/kg	> 10 mg/kg		
CCCCCC/C=C/[C@H]1CCC(=NOC)[C@@H]1CCCCCCC(=O)OCC (relative stereo) [ethyl 9-oxo-13-trans-prostenoate 9-methoxime]							inhibition in vivo at 10 mg/kg (gastric acid secretion [8]; [11]): 66%; inhibition in vivo at 10 mg/kg (gastric acid secretion [8]; [12]): 45%

Continued, in another order:

IC50 [7, 9]	IC50 [7, 10]	Compound	ED50 [4]	ED50 [5]	ED50 [6]	inhibition in vivo at 100 mg/kg (gastric acid secretion [3])	also measured
3 to 5 mg/L (≈ 8.56 to 14.3 µM)	1 mg/L (≈ 2.85 µM)	CCCCCC/C=C/[C@@H]1CCC(=O)[C@H]1CCCCC(C)(C)CC(=O)O (relative stereo) [3,3-dimethyl-9-oxo-13-trans-prostenoic acid]	12 mg/kg	5.1 mg/kg	> 10 mg/kg		inhibition in vivo at 200 mg/kg (gastric acid secretion [3]; 200 mg./kg. intraduodenal): 72%
	1 to 2 mg/L (≈ 3.4 to 6.79 µM)	CCCC/C=C/[C@H]1CCC(=O)[C@@H]1CCCCCCC(=O)O (relative stereo) [9-oxo-19,20-dinor-13-trans-prostenoic acid]	2.16 mg/kg	0.715 mg/kg	5.28 mg/kg	77%	inhibition in vivo at 50 mg/kg (gastric acid secretion [3]; 50 mg./kg. intraduodenal): 37%
	1 to 2 mg/L (≈ 2.96 to 5.93 µM)	CCCCCC/C=C/[C@@H]1CCC(=NO)[C@H]1CCCCCCC(=O)O (relative stereo) [9-oxo-13-trans-prostenoic acid 9-oxime, 9-Oxo-13-trans-prostenoic acid oxime]	30 mg/kg	23.1 mg/kg	12.5 mg/kg	39%	
20 mg/L (≈ 61.6 µM)		CCCCCC/C=C/[C@@H]1CCC(=O)[C@H]1CCCCOCC(=O)O (relative stereo) [9-oxo-3-oxa-13-trans-prostenoic acid]	0.895 mg/kg	0.67 mg/kg	5.24 mg/kg	90%	
